Data taken from patent publication US20240279159A1, “HERBICIDAL ARYLCYCLOPENTENE CARBOXAMIDES” (BASF SE, priority 2021, published 2024).

Legend:
AMARE [1] = assay: greenhouse herbicidal test, post-emergence treatment; type: in vivo, Amaranthus retroflexus; conditions: post-emergence method, scale from 0 to 100
Source text: (§1) The culture containers used were plastic flowerpots containing loamy sand with approximately 3.0% of humus as the substrate. The seeds of the test plants were sown separately for each species.
(§2) For the pre-emergence treatment, the active ingredients, which had been suspended or emulsified in water, were applied directly after sowing by means of finely distributing nozzles. The containers were irrigated gently to promote germination and growth and subsequently covered with transparent plastic hoods until the test plants had rooted. This cover caused uniform germination of the test plants, unless this had been impaired by the active ingredients. For the post-emergence treatment, the test plants were first grown to a height of 3 to 15 cm, depending on the plant habit, and only then treated with the active ingredients which had been suspended or emulsified in water. For this purpose, the test plants were either sown directly and grown in the same containers, or they were first grown separately as seedlings and transplanted into the test containers a few days prior to treatment.
(§3) Depending on the species, the test plants were kept at 10-25° C. or 20-35° C., respectively. The test period extended over 2 to 4 weeks. During this time, the test plants were tended, and their response to the individual treatments was evaluated.
(§4) Evaluation was carried out using a scale from 0 to 100. […]

ALOMY = assay: as above; type: in vivo, Alopercurus myosuroides; conditions: post-emergence method, scale from 0 to 100
Source text: as §1, §2, §3
Evaluation was carried out using a scale from 0 to 100. 100 means no emergence of the test plants, or complete destruction of at least the aerial moieties, and 0 means no damage, or normal course of growth. A good herbicidal activity is given at values of 60 to 90 and a very good herbicidal activity is given at values of 90 to 100.
The test plants used in the greenhouse experiments were of the following species: […]

ECHCG [2] = assay: as above; type: in vivo, Echinocloa crus-galli; conditions: post-emergence method, application rate 0.250 kg/ha; scale from 0 to 100
Source text: as §1, §2, §3, §4

AMARE [3] = assay: greenhouse herbicidal test, pre-emergence treatment; type: in vivo, Amaranthus retroflexus; conditions: pre-emergence method, application rate 0.250 kg/ha; scale from 0 to 100
Source text: as §1, §2, §3, §4

ABUTH = assay: greenhouse herbicidal test, post-emergence treatment; type: in vivo, Abutilon theophrasti; conditions: post-emergence method, application rate 0.250 kg/ha; scale from 0 to 100
Source text: as §1, §2, §3, §4

ECHCG [4] = assay: greenhouse herbicidal test, pre-emergence treatment; type: in vivo, Echinocloa crus-galli; conditions: pre-emergence method, application rate 1,000 kg/ha; scale from 0 to 100
Source text: as §1, §2, §3, §4

SETFA = assay: as above; type: in vivo, Setaria faberi; conditions: pre-emergence method, application rate 1,000 kg/ha; scale from 0 to 100
Source text: as §1, §2, §3, §4

With `COC(=O)C[C@H](C)NC(=O)C1(C)CC(c2cc(Cl)cc(Cl)c2)=CO1` (single isomer, unassigned) [I3] the “herbicidal activity against AMARE” value (AMARE [1]; application rate 1.000 kg/ha) was “very good (a very good herbicidal activity is given at values of 90 to 100)”.
In the case of `COC(=O)C[C@H](C)NC(=O)C1(C)CC(c2cc(F)cc(F)c2)=CO1` (single isomer, unassigned) [I1], the “herbicidal activity against ALOMY” value (ALOMY; application rate 1.000 kg/ha) is reported as “very good (a very good herbicidal activity is given at values of 90 to 100)”.
In the case of `COC(=O)[C@@H]1C=C[C@H](NC(=O)C2(C)CC(c3cc(Cl)cc(Cl)c3)=CO2)C1` (relative stereo) [I6], the “herbicidal activity against ALOMY” value (ALOMY; application rate 0.250 kg/ha) is reported as “very good (a very good herbicidal activity is given at values of 90 to 100)”.
In the case of `COC(=O)[C@@H]1C=C[C@H](NC(=O)C2(C)CC=C(c3cc(F)cc(F)c3)C2=O)C1` (stereo partly drawn) [I111, methyl (1S,4R)-4-[[3-(3,5-difluorophenyl)-1-methyl-2-oxo-cyclopent-3-ene-1-carbonyl]amino]cyclopent-2-ene-1-carboxylate], the “herbicidal activity against ECHCG” value (ECHCG [2]) is reported as “good (A good herbicidal activity is given at values of 60 to 90)”.
With `COC(=O)[C@@H]1C=C[C@H](NC(=O)C2(C(F)(F)F)CC(c3cc(F)cc(F)c3)=CO2)C1` (relative stereo) [I8] the “herbicidal activity against AMARE” value (AMARE [3]) was “good (A good herbicidal activity is given at values of 60 to 90)”.
In the case of `COC(=O)C1CCC(NC(=O)C2(C)CC(c3cc(Cl)cc(Cl)c3)=CO2)C1` (stereo not shown) [I14], the “herbicidal activity against ABUTH” value (ABUTH) is reported as “good (A good herbicidal activity is given at values of 60 to 90)” and the “herbicidal activity against AMARE” value (AMARE [1]; application rate 0.250 kg/ha) is reported as “good (A good herbicidal activity is given at values of 60 to 90)”.
For `COC(=O)C[C@H](C)NC(=O)C1(C)CC(c2cc(F)cc(F)c2)=CO1` (single isomer, unassigned) [I2], the “herbicidal activity against ALOMY” value (ALOMY; application rate 1.000 kg/ha) was “good (A good herbicidal activity is given at values of 60 to 90)”, the “herbicidal activity against ECHCG” value (ECHCG [4]) was “good (A good herbicidal activity is given at values of 60 to 90)” and the “herbicidal activity against SETFA” value (SETFA) was “good (A good herbicidal activity is given at values of 60 to 90)”.
